Consider two compounds from publication PMC165585 (BMC Structural Biology, 2003).

Experiment [1] deals with T1, LysU (heat-inducible Escherichia coli lysyl-tRNA synthetase) (Escherichia coli, UniProt P0A8N5).
T1 sequence (P0A8N5 2-505): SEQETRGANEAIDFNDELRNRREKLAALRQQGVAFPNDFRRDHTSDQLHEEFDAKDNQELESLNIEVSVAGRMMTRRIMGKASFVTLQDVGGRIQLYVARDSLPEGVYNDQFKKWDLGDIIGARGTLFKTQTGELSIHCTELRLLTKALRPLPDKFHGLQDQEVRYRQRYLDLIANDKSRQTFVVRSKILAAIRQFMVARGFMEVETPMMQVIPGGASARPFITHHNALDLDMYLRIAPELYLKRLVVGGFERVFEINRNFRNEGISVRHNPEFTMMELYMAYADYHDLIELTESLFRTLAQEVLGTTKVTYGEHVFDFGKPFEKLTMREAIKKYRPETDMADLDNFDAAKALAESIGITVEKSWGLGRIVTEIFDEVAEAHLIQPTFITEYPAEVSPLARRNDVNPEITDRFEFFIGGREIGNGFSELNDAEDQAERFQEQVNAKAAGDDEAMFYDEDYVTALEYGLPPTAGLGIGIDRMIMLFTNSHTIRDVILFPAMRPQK
Briefly: isothermal titration calorimetry. The class given is binding.

Experiment [2] has as its target T1, LysU (heat-inducible Escherichia coli lysyl-tRNA synthetase). Briefly: biochemical.

As for `Nc1ncnc2c1ncn2[C@@H]1O[C@H](COP(=O)(O)OP(=O)(O)CP(=O)(O)O)[C@@H](O)[C@H]1O` [AMPPCP, β,γ-methyleneadenosine 5'-triphosphate], in experiment [1], the dissociation constant (Kd) is 1.22 ± 0.15 µM.
Compound `NCCCC[C@H](N)C(=O)O` [lysine] gave a Kd in experiment [2] of 7.96 ± 1.4 µM.
